Measured values taken from ChEMBL document CHEMBL5634179, “Phenylhydrazone Alkaloids from the Deep-Sea Cold Seep Derived Fungus Talaromyces amestolkiae HDN21-0307” (J Nat Prod, 2024).
Values after ≈ are worked out from the molar mass of the structure shown. Counter-ions that a name gives are not always drawn.

What was measured:
[1] = Cytotoxicity against human H446/EP cells by SRB assay; assay type: functional, cell-based
[2] = test system: K562; test: Cytotoxicity against human K562 cells by MTT assay; assay type: functional, cell-based
[3] = test system: MDA-MB-231; test: Cytotoxicity against human MDA-MB-231 cells by SRB assay; assay type: functional, cell-based
[4] = test system: NCI-H446; test: Cytotoxicity against human NCI-H446 cells by SRB assay; assay type: functional, cell-based
[5] = test system: ASPC1; test: Cytotoxicity against human ASPC1 cells by SRB assay; assay type: functional, cell-based
[6] = test system: Bacillus cereus; test: Antibacterial activity against Bacillus cereus ATCC 4342 assessed as bacterial growth inhibition; assay type: functional
[7] = test system: Staphylococcus; test: Antibacterial activity against methicillin-resistant coagulase-negative Staphylococcus assessed as bacterial growth inhibition; assay type: functional
[8] = test system: Staphylococcus aureus; test: Antibacterial activity against methicillin-resistant Staphylococcus aureus assessed as bacterial growth inhibition; assay type: functional
[9] = test system: Staphylococcus aureus; test: Antibacterial activity against Staphylococcus aureus ATCC 29213 assessed as bacterial growth inhibition; assay type: functional
[10] = test system: Pseudomonas aeruginosa; test: Antibacterial activity against Pseudomonas aeruginosa ATCC 27853 assessed as bacterial growth inhibition; assay type: functional
[11] = test system: Bacillus subtilis; test: Antibacterial activity against Bacillus subtilis ATCC 6051 assessed as bacterial growth inhibition; assay type: functional
[12] = test system: Acinetobacter baumannii; test: Antibacterial activity against Acinetobacter baumannii AB34 assessed as bacterial growth inhibition; assay type: functional

| SMILES | IC50 [1] [µM] | IC50 [2] [µM] | IC50 [3] [µM] | IC50 [4] [µM] | IC50 [5] [µM] | MIC [6] [µg/mL] | MIC [7] [µg/mL] | MIC [8] [µg/mL] | MIC [9] [µg/mL] | MIC [10] [µg/mL] | MIC [11] [µg/mL] | MIC [12] [µg/mL] |
| --- | --- | --- | --- | --- | --- | --- | --- | --- | --- | --- | --- | --- |
| COc1cc(O)ccc1N/N=C1/C=Cc2cc(O)cc(O)c2C1=O | > 15 | > 15 | > 15 | > 15 | > 15 | 128 (≈ 392 µM) | 64 (≈ 196 µM) | 64 (≈ 196 µM) | 128 (≈ 392 µM) | > 150 | 128 (≈ 392 µM) | > 150 |
| O=C(O)c1cn(C2CC2)c2cc(N3CCNCC3)c(F)cc2c1=O [CIPROFLOXACIN] | – | – | – | – | – | 0.063 (≈ 0.19 µM) | 4 (≈ 12.1 µM) | – | – | – | 0.63 (≈ 1.9 µM) | 16 (≈ 48.3 µM) |
| COc1cccc2c1C(=O)c1c(O)c3c(c(O)c1C2=O)C[C@@](O)(C(=O)CO)C[C@@H]3O[C@H]1C[C@H](N)[C@H](O)[C@H](C)O1 [DOXORUBICIN HYDROCHLORIDE] | 6 | – | – | 0.6 | 0.21 | – | – | – | – | – | – | – |
| COc1cc(O)ccc1N/N=C1/C(=O)[C@@](C)(OC(=O)c2c(C)cc(O)cc2O)C(=O)C2=C1C=C(/C=C/C(=O)O)OC2 | > 15 | > 15 | > 15 | 10.2 | > 15 | > 150 | > 150 | > 150 | 64 (≈ 113 µM) | > 150 | > 150 | > 150 |
| COc1cc(O)ccc1N/N=C1\C(=O)C=C(Cc2ccccc2)NC1=O | > 15 | > 15 | > 15 | 4.1 | > 15 | > 150 | > 150 | > 150 | 32 (≈ 91.1 µM) | > 150 | > 150 | > 150 |
| COc1cc(O)ccc1N/N=C1/C=Cc2cccc(O)c2C1=O | > 15 | > 15 | > 15 | > 15 | > 15 | 128 (≈ 412 µM) | 128 (≈ 412 µM) | 128 (≈ 412 µM) | 128 (≈ 412 µM) | > 150 | 128 (≈ 412 µM) | > 150 |
